The results in this text go back to patent US11173207B2 (priority 2016, dated 2021).

The subject of the assay is Splenocytes. On the set-up: species or system CD-1 mice. The note with it: mouse, in vivo.

Regarding QS21, the cytokine profile entry is “strong and balanced Th1 plus Th2 cytokine profile”.
